Values after ≈ are worked out from the molar mass of the structure shown.
How the values were obtained:
[1] = Antioxidant activity assessed as DPPH free radical scavenging activity at 75 ug/ml after 20 mins by UV-vis spectrophotometry analysis; type: physicochemical
[2] = Antioxidant activity assessed as DPPH free radical scavenging activity at 100 ug/ml after 20 mins by UV-vis spectrophotometry analysis; type: physicochemical
[3] = Antioxidant activity assessed as hydroxyl radical scavenging activity at 75 ug/ml after 60 mins; type: physicochemical; details: 1 h
[4] = Antioxidant activity assessed as hydroxyl radical scavenging activity at 100 ug/ml after 60 mins; type: physicochemical; details: 1 h
Staphylococcus aureus = experiment: Antibacterial activity against Staphylococcus aureus assessed as growth inhibition incubated for 24 hrs at 37 degC by broth dilution method; type: functional
Escherichia coli = experiment: Antibacterial activity against Escherichia coli assessed as growth inhibition incubated for 24 hrs at 37 degC by broth dilution method; type: functional
Pseudomonas aeruginosa = experiment: Antibacterial activity against Pseudomonas aeruginosa assessed as growth inhibition incubated for 24 hrs at 37 degC by broth dilution method; type: functional
Aspergillus niger = experiment: Antifungal activity against Aspergillus niger assessed as growth inhibition incubated for 72 hrs at 37 degC by broth dilution method; type: functional
Aspergillus flavus = experiment: Antifungal activity against Aspergillus flavus assessed as growth inhibition incubated for 72 hrs at 37 degC by broth dilution method; type: functional
Candida albicans = experiment: Antifungal activity against Candida albicans assessed as growth inhibition incubated for 72 hrs at 37 degC by broth dilution method; type: functional
[5] = Antioxidant activity assessed as DPPH free radical scavenging activity at 25 ug/ml after 20 mins by UV-vis spectrophotometry analysis; type: physicochemical
[6] = Antioxidant activity assessed as DPPH free radical scavenging activity at 50 ug/ml after 20 mins by UV-vis spectrophotometry analysis; type: physicochemical

## C/C(=N\Nc1ccc(F)cc1)c1cc2c(C)cc(=O)oc2c(/C(C)=N/Nc2ccc(F)cc2)c1O
[1]
  inhibition (INH): 14.01%
[2]
  inhibition (INH): 17.45%
[3]
  inhibition (INH): 17.33%
[4]
  inhibition (INH): 26.6%
Staphylococcus aureus
  MIC90: 75 µg/mL (≈ 157 µM)
Escherichia coli
  MIC90: 50 µg/mL (≈ 105 µM)
Pseudomonas aeruginosa
  MIC90: 50 µg/mL (≈ 105 µM)
Aspergillus niger
  MIC90: 50 µg/mL (≈ 105 µM)
Aspergillus flavus
  MIC90: 75 µg/mL (≈ 157 µM)
Candida albicans
  MIC90: 75 µg/mL (≈ 157 µM)
[5]
  inhibition (INH): 8.49%
[6]
  inhibition (INH): 11.69%

## COc1ccc(N/N=C(\C)c2cc3c(C)cc(=O)oc3c(/C(C)=N/Nc3ccc(OC)cc3)c2O)cc1
[1]
  inhibition (INH): 19.7%
[2]
  inhibition (INH): 22.4%
[3]
  inhibition (INH): 26.36%
[4]
  inhibition (INH): 33.01%
Staphylococcus aureus
  MIC90: 25 µg/mL (≈ 49.9 µM)
Escherichia coli
  MIC90: 12.5 µg/mL (≈ 25 µM)
Pseudomonas aeruginosa
  MIC90: 12.5 µg/mL (≈ 25 µM)
Aspergillus niger
  MIC90: 12.5 µg/mL (≈ 25 µM)
Aspergillus flavus
  MIC90: 25 µg/mL (≈ 49.9 µM)
Candida albicans
  MIC90: 50 µg/mL (≈ 99.9 µM)
[5]
  inhibition (INH): 14.57%
[6]
  inhibition (INH): 17.17%

## Cc1cc(=O)oc2c(-c3nn(-c4ccccc4)cc3C=O)c(O)c(-c3nn(-c4ccccc4)cc3C=O)cc12
[1]
  inhibition (INH): 20.08%
[2]
  inhibition (INH): 23.6%
[3]
  inhibition (INH): 25.9%
[4]
  inhibition (INH): 30.04%
Staphylococcus aureus
  MIC90: 50 µg/mL (≈ 96.8 µM)
Escherichia coli
  MIC90: 50 µg/mL (≈ 96.8 µM)
Pseudomonas aeruginosa
  MIC90: 50 µg/mL (≈ 96.8 µM)
Aspergillus niger
  MIC90: 50 µg/mL (≈ 96.8 µM)
Aspergillus flavus
  MIC90: 75 µg/mL (≈ 145 µM)
Candida albicans
  MIC90: 50 µg/mL (≈ 96.8 µM)
[5]
  inhibition (INH): 15.1%
[6]
  inhibition (INH): 17.34%

## COc1ccc(O)c(C(C)(C)C)c1.COc1ccc(O)cc1C(C)(C)C [BUTYLATED HYDROXYANISOLE]
[3]
  inhibition (INH): 25.58%
[4]
  inhibition (INH): 32.03%

## Cc1cc(=O)oc2c(-c3nn(-c4ccc(F)cc4)cc3C=O)c(O)c(-c3nn(-c4ccc(F)cc4)cc3C=O)cc12
[1]
  inhibition (INH): 17.69%
[2]
  inhibition (INH): 19.44%
[3]
  inhibition (INH): 21.27%
[4]
  inhibition (INH): 29.47%
Staphylococcus aureus
  MIC90: 75 µg/mL (≈ 136 µM)
Escherichia coli
  MIC90: 75 µg/mL (≈ 136 µM)
Pseudomonas aeruginosa
  MIC90: 50 µg/mL (≈ 90.5 µM)
Aspergillus niger
  MIC90: 75 µg/mL (≈ 136 µM)
Aspergillus flavus
  MIC90: 75 µg/mL (≈ 136 µM)
Candida albicans
  MIC90: 100 µg/mL (≈ 181 µM)
[5]
  inhibition (INH): 11.62%
[6]
  inhibition (INH): 14.93%

## C/C(=N\Nc1ccccc1)c1cc2c(C)cc(=O)oc2c(/C(C)=N/Nc2ccccc2)c1O
[1]
  inhibition (INH): 19.35%
[2]
  inhibition (INH): 22.22%
[3]
  inhibition (INH): 24.36%
[4]
  inhibition (INH): 29.65%
Staphylococcus aureus
  MIC90: 50 µg/mL (≈ 114 µM)
Escherichia coli
  MIC90: 25 µg/mL (≈ 56.8 µM)
Pseudomonas aeruginosa
  MIC90: 25 µg/mL (≈ 56.8 µM)
Aspergillus niger
  MIC90: 50 µg/mL (≈ 114 µM)
Aspergillus flavus
  MIC90: 50 µg/mL (≈ 114 µM)
Candida albicans
  MIC90: 50 µg/mL (≈ 114 µM)
[5]
  inhibition (INH): 15.03%
[6]
  inhibition (INH): 16.96%

## C/C(=N\Nc1ccc(C)cc1)c1cc2c(C)cc(=O)oc2c(/C(C)=N/Nc2ccc(C)cc2)c1O
[1]
  inhibition (INH): 19.43%
[2]
  inhibition (INH): 22.45%
[3]
  inhibition (INH): 25.54%
[4]
  inhibition (INH): 30.52%
Staphylococcus aureus
  MIC90: 25 µg/mL (≈ 53.4 µM)
Escherichia coli
  MIC90: 25 µg/mL (≈ 53.4 µM)
Pseudomonas aeruginosa
  MIC90: 25 µg/mL (≈ 53.4 µM)
Aspergillus niger
  MIC90: 50 µg/mL (≈ 107 µM)
Aspergillus flavus
  MIC90: 25 µg/mL (≈ 53.4 µM)
Candida albicans
  MIC90: 50 µg/mL (≈ 107 µM)
[5]
  inhibition (INH): 14.29%
[6]
  inhibition (INH): 16.65%

## Cc1ccc(-n2cc(C=O)c(-c3cc4c(C)cc(=O)oc4c(-c4nn(-c5ccc(C)cc5)cc4C=O)c3O)n2)cc1
[1]
  inhibition (INH): 20.75%
[2]
  inhibition (INH): 24.56%
[3]
  inhibition (INH): 27.07%
[4]
  inhibition (INH): 31.48%
Staphylococcus aureus
  MIC90: 75 µg/mL (≈ 138 µM)
Escherichia coli
  MIC90: 50 µg/mL (≈ 91.8 µM)
Pseudomonas aeruginosa
  MIC90: 25 µg/mL (≈ 45.9 µM)
Aspergillus niger
  MIC90: 50 µg/mL (≈ 91.8 µM)
Aspergillus flavus
  MIC90: 75 µg/mL (≈ 138 µM)
Candida albicans
  MIC90: 50 µg/mL (≈ 91.8 µM)
[5]
  inhibition (INH): 16%
[6]
  inhibition (INH): 17.28%

## C/C(=N\Nc1cccc(C)c1)c1cc2c(C)cc(=O)oc2c(/C(C)=N/Nc2cccc(C)c2)c1O
[1]
  inhibition (INH): 13.97%
[2]
  inhibition (INH): 17.29%
[3]
  inhibition (INH): 24.22%
[4]
  inhibition (INH): 30.78%
Staphylococcus aureus
  MIC90: 50 µg/mL (≈ 107 µM)
Escherichia coli
  MIC90: 50 µg/mL (≈ 107 µM)
Pseudomonas aeruginosa
  MIC90: 25 µg/mL (≈ 53.4 µM)
Aspergillus niger
  MIC90: 75 µg/mL (≈ 160 µM)
Aspergillus flavus
  MIC90: 50 µg/mL (≈ 107 µM)
Candida albicans
  MIC90: 50 µg/mL (≈ 107 µM)
[5]
  inhibition (INH): 10.92%
[6]
  inhibition (INH): 11.8%

## COc1ccc(-n2cc(C=O)c(-c3cc4c(C)cc(=O)oc4c(-c4nn(-c5ccc(OC)cc5)cc4C=O)c3O)n2)cc1
[1]
  inhibition (INH): 21.14%
[2]
  inhibition (INH): 24.59%
[3]
  inhibition (INH): 29.4%
[4]
  inhibition (INH): 35.13%
Staphylococcus aureus
  MIC90: 50 µg/mL (≈ 86.7 µM)
Escherichia coli
  MIC90: 50 µg/mL (≈ 86.7 µM)
Pseudomonas aeruginosa
  MIC90: 12.5 µg/mL (≈ 21.7 µM)
Aspergillus niger
  MIC90: 25 µg/mL (≈ 43.4 µM)
Aspergillus flavus
  MIC90: 50 µg/mL (≈ 86.7 µM)
Candida albicans
  MIC90: 50 µg/mL (≈ 86.7 µM)
[5]
  inhibition (INH): 14.2%
[6]
  inhibition (INH): 17.87%

## O=C1O[C@H]([C@@H](O)CO)C(O)=C1O [ASCORBIC ACID]
[1]
  inhibition (INH): 21.98%
[2]
  inhibition (INH): 24.25%
[5]
  inhibition (INH): 15.08%
[6]
  inhibition (INH): 16.87%

## Cc1cc(=O)oc2c(-c3nn(-c4ccc(Cl)cc4)cc3C=O)c(O)c(-c3nn(-c4ccc(Cl)cc4)cc3C=O)cc12
[1]
  inhibition (INH): 20.63%
[2]
  inhibition (INH): 23.61%
[3]
  inhibition (INH): 24.77%
[4]
  inhibition (INH): 32.07%
Staphylococcus aureus
  MIC90: 50 µg/mL (≈ 85.4 µM)
Escherichia coli
  MIC90: 25 µg/mL (≈ 42.7 µM)
Pseudomonas aeruginosa
  MIC90: 25 µg/mL (≈ 42.7 µM)
Aspergillus niger
  MIC90: 50 µg/mL (≈ 85.4 µM)
Aspergillus flavus
  MIC90: 50 µg/mL (≈ 85.4 µM)
Candida albicans
  MIC90: 100 µg/mL (≈ 171 µM)
[5]
  inhibition (INH): 15.58%
[6]
  inhibition (INH): 17.55%

## C/C(=N\Nc1ccc(Cl)cc1)c1cc2c(C)cc(=O)oc2c(/C(C)=N/Nc2ccc(Cl)cc2)c1O
[1]
  inhibition (INH): 17.41%
[2]
  inhibition (INH): 20.62%
[3]
  inhibition (INH): 23.49%
[4]
  inhibition (INH): 30.75%
Staphylococcus aureus
  MIC90: 50 µg/mL (≈ 98.2 µM)
Escherichia coli
  MIC90: 50 µg/mL (≈ 98.2 µM)
Pseudomonas aeruginosa
  MIC90: 25 µg/mL (≈ 49.1 µM)
Aspergillus niger
  MIC90: 25 µg/mL (≈ 49.1 µM)
Aspergillus flavus
  MIC90: 50 µg/mL (≈ 98.2 µM)
Candida albicans
  MIC90: 50 µg/mL (≈ 98.2 µM)
[5]
  inhibition (INH): 10.73%
[6]
  inhibition (INH): 14.75%

## O=C(O)c1cn(C2CC2)c2cc(N3CCNCC3)c(F)cc2c1=O [CIPROFLOXACIN]
Staphylococcus aureus
  MIC90: 25 µg/mL (≈ 75.4 µM)
Escherichia coli
  MIC90: 25 µg/mL (≈ 75.4 µM)
Pseudomonas aeruginosa
  MIC90: 12.5 µg/mL (≈ 37.7 µM)

## Cc1cccc(-n2cc(C=O)c(-c3cc4c(C)cc(=O)oc4c(-c4nn(-c5cccc(C)c5)cc4C=O)c3O)n2)c1
[1]
  inhibition (INH): 18.78%
[2]
  inhibition (INH): 24.02%
[3]
  inhibition (INH): 26.49%
[4]
  inhibition (INH): 30.1%
Staphylococcus aureus
  MIC90: 75 µg/mL (≈ 138 µM)
Escherichia coli
  MIC90: 50 µg/mL (≈ 91.8 µM)
Pseudomonas aeruginosa
  MIC90: 25 µg/mL (≈ 45.9 µM)
Aspergillus niger
  MIC90: 75 µg/mL (≈ 138 µM)
Aspergillus flavus
  MIC90: 75 µg/mL (≈ 138 µM)
Candida albicans
  MIC90: 50 µg/mL (≈ 91.8 µM)
[5]
  inhibition (INH): 13.24%
[6]
  inhibition (INH): 16.4%

## OC(Cn1cncn1)(Cn1cncn1)c1ccc(F)cc1F [FLUCONAZOLE]
Aspergillus niger
  MIC90: 25 µg/mL (≈ 81.6 µM)
Aspergillus flavus
  MIC90: 25 µg/mL (≈ 81.6 µM)
Candida albicans
  MIC90: 50 µg/mL (≈ 163 µM)

Reference: ChEMBL document CHEMBL3745592, “Synthesis of novel coumarin appended bis(formylpyrazole) derivatives: Studies on their antimicrobial and antioxidant activities” (Bioorg Med Chem Lett, 2016)
